# Measured values as given in patent publication US10301280B2 (Plexxikon Inc., priority 2012, dated 2019).
# Biological target: c-kit mutant D816V (Homo sapiens (Human), UniProt P10721, D816V/DEL694-753)
# Test: c-Kit mutant D816V biochemical assay (AlphaScreen)
# Details: c-kit D816V biochemical inhibitory activity
# Procedure, shortened: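 His-tagged c-Kit D816V kinase domain (551-934, Δ694-753, E. coli) phosphorylating 30 nM biotin-(E4Y)10 at 10 μM ATP in HEPES pH 7.2 with Mg/Mn, 5% DMSO, 30 min at room temperature. PY20-acceptor/streptavidin-donor AlphaScreen detection after EDTA stop. IC50 from 8-point 1:3 titration.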
# Chain of c-kit mutant D816V (P10721 other isoform, or with tags, fused parts or gaps D816V/del 694-753): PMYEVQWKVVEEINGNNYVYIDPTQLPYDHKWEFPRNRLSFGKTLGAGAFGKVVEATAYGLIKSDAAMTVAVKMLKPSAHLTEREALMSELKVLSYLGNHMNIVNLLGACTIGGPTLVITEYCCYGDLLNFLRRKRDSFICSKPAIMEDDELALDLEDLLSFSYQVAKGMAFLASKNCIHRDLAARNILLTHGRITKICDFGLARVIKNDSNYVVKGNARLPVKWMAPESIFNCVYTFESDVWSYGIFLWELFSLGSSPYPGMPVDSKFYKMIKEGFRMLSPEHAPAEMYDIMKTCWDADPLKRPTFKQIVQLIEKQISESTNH
row,Compound,IC50
1,"O=C(Nc1cnc2[nH]c(-c3ccccc3)cc2c1)c1[nH]ncc1Br [P-2005, 4-bromo-N-(2-phenyl-1H-pyrrolo[2,3-b]pyridin-5-yl)-1H-pyrazole-5-carboxamide]",0.0001 to 1 µM
2,"Cc1n[nH]c(C(=O)Nc2cnc3[nH]c(-c4ccccc4)cc3c2)c1C [P-2007, 3,4-dimethyl-N-(2-phenyl-1H-pyrrolo[2,3-b]pyridin-5-yl)-1H-pyrazole-5-carboxamide]",0.0001 to 1 µM
3,"Cc1[nH]nc(C(=O)Nc2cnc3[nH]c(-c4ccc(N5CCOCC5)cc4)cc3c2)c1C [P-2059, 4,5-dimethyl-N-[2-(4-morpholinophenyl)-1H-pyrrolo[2,3-b]pyridin-5-yl]-1H-pyrazole-3-carboxamide]",0.0001 to 1 µM
4,"Cc1n[nH]c(C(=O)Nc2cnc3[nH]c(C4=CCN(C(=O)C5CC5)C4)cc3c2)c1Cl [P-2060, 4-chloro-N-[2-[1-(cyclopropanecarbonyl)-2,5-dihydropyrrol-3-yl]-1H-pyrrolo[2,3-b]pyridin-5-yl]-3-methyl-1H-pyrazole-5-carboxamide]",0.0001 to 1 µM
5,"CC(=O)N1CC=C(c2cc3cc(NC(=O)c4[nH]nc(C)c4Cl)cnc3[nH]2)CC1 [P-2061, N-[2-(1-acetyl-3,6-dihydro-2H-pyridin-4-yl)-1H-pyrrolo[2,3-b]pyridin-5-yl]-4-chloro-3-methyl-1H-pyrazole-5-carboxamide]",0.0001 to 1 µM
6,"Cc1n[nH]c(C(=O)Nc2cnc3[nH]c(C4=CCN(C(=O)N5CCOCC5)C4)cc3c2)c1Cl [P-2062, 4-chloro-3-methyl-N-[2-[1-(morpholine-4-carbonyl)-2,5-dihydropyrrol-3-yl]-1H-pyrrolo[2,3-b]pyridin-5-yl]-1H-pyrazole-5-carboxamide]",0.0001 to 1 µM
7,"Cc1n[nH]c(C(=O)Nc2cnc3[nH]c(-c4cccc(N(C)C)c4)cc3c2)c1C [P-2064, N-[2-[3-(dimethylamino)phenyl]-1H-pyrrolo[2,3-b]pyridin-5-yl]-3,4-dimethyl-1H-pyrazole-5-carboxamide]",0.0001 to 1 µM
8,"Cc1n[nH]c(C(=O)Nc2cnc3[nH]c(-c4c(C)noc4C)cc3c2)c1C [P-2065, N-[2-(3,5-dimethylisoxazol-4-yl)-1H-pyrrolo[2,3-b]pyridin-5-yl]-3,4-dimethyl-1H-pyrazole-5-carboxamide]",0.0001 to 1 µM
9,"CNC(=O)c1ccc(-c2cc3cc(NC(=O)c4[nH]nc(C)c4C)cnc3[nH]2)cc1 [P-2067, 3,4-dimethyl-N-[2-[4-(methylcarbamoyl)phenyl]-1H-pyrrolo[2,3-b]pyridin-5-yl]-1H-pyrazole-5-carboxamide]",0.0001 to 1 µM
10,"Cc1[nH]nc(C(=O)Nc2cnc3[nH]c(-c4ccnc(N5CCN(C)CC5)c4)cc3c2)c1C [P-2069, 4,5-dimethyl-N-[2-[2-(4-methylpiperazin-1-yl)-4-pyridyl]-1H-pyrrolo[2,3-b]pyridin-5-yl]-1H-pyrazole-3-carboxamide]",0.0001 to 1 µM
11,"Cc1[nH]nc(C(=O)Nc2cnc3[nH]c(-c4cccc(N5CCOCC5)c4)cc3c2)c1C [P-2070, 4,5-dimethyl-N-[2-(3-morpholinophenyl)-1H-pyrrolo[2,3-b]pyridin-5-yl]-1H-pyrazole-3-carboxamide]",0.0001 to 1 µM
12,"Cc1n[nH]c(C(=O)Nc2cnc3[nH]c(C4=CCN(C(=O)CN5CCOCC5)CC4)cc3c2)c1C [P-2073, 3,4-dimethyl-N-[2-[1-(2-morpholinoacetyl)-3,6-dihydro-2H-pyridin-4-yl]-1H-pyrrolo[2,3-b]pyridin-5-yl]-1H-pyrazole-5-carboxamide]",0.0001 to 1 µM
13,"Cc1n[nH]c(C(=O)Nc2cnc3[nH]c(C4=CCN(C(=O)C(O)CO)CC4)cc3c2)c1C (stereo not drawn) [P-2074, N-[2-[1-(2,3-dihydroxypropanoyl)-3,6-dihydro-2H-pyridin-4-yl]-1H-pyrrolo[2,3-b]pyridin-5-yl]-3,4-dimethyl-1H-pyrazole-5-carboxamide]",0.0001 to 1 µM
14,"Cc1n[nH]c(C(=O)Nc2cnc3[nH]c(-c4cccc(N5CCCC5)c4)cc3c2)c1C [P-2079, 3,4-dimethyl-N-[2-(3-pyrrolidin-1-ylphenyl)-1H-pyrrolo[2,3-b]pyridin-5-yl]-1H-pyrazole-5-carboxamide]",0.0001 to 1 µM
15,"Cc1n[nH]c(C(=O)Nc2cnc3[nH]c(C4=CCC(N)CC4)cc3c2)c1C (stereo not drawn) [P-2080, N-[2-(4-aminocyclohexen-1-yl)-1H-pyrrolo[2,3-b]pyridin-5-yl]-3,4-dimethyl-1H-pyrazole-5-carboxamide]",0.0001 to 1 µM
16,"Cc1n[nH]c(C(=O)Nc2cnc3[nH]c(-c4ccc(C#N)c(N5CCOCC5)c4)cc3c2)c1C [P-2081, N-[2-(4-cyano-3-morpholino-phenyl)-1H-pyrrolo[2,3-b]pyridin-5-yl]-3,4-dimethyl-1H-pyrazole-5-carboxamide]",0.0001 to 1 µM
17,"Cc1n[nH]c(C(=O)Nc2cnc3[nH]c(-n4cccn4)cc3c2)c1C [P-2112, 3,4-dimethyl-N-(2-pyrazol-1-yl-1H-pyrrolo[2,3-b]pyridin-5-yl)-1H-pyrazole-5-carboxamide]",0.0001 to 1 µM
18,"Cc1cc(C(=O)Nc2cnc3[nH]c(-n4cccn4)cc3c2)[nH]n1 [P-2116, 3-methyl-N-(2-pyrazol-1-yl-1H-pyrrolo[2,3-b]pyridin-5-yl)-1H-pyrazole-5-carboxamide]",1 to 10 µM
19,"Cc1n[nH]c(C(=O)Nc2cnc3[nH]c(-c4cccc(N5CCN(C(=O)C6CC6)CC5)c4)cc3c2)c1C [P-2118, N-[2-[3-[4-(cyclopropanecarbonyl)piperazin-1-yl]phenyl]-1H-pyrrolo[2,3-b]pyridin-5-yl]-3,4-dimethyl-1H-pyrazole-5-carboxamide]",0.0001 to 1 µM
20,"Cc1n[nH]c(C(=O)Nc2cnc3sc(-c4ccccc4)nc3c2)c1C [P-2144, 3,4-dimethyl-N-(2-phenylthiazolo[5,4-b]pyridin-6-yl)-1H-pyrazole-5-carboxamide]",1 to 10 µM
21,"Cc1n[nH]c(C(=O)Nc2cnc3[nH]c(-c4ccc(C(=O)NC5CC5)cc4)cc3c2)c1C [P-2148, N-[2-[4-(cyclopropylcarbamoyl)phenyl]-1H-pyrrolo[2,3-b]pyridin-5-yl]-3,4-dimethyl-1H-pyrazole-5-carboxamide]",0.0001 to 1 µM
